These compounds were tested against T1, A3 human recombinant receptor (Homo sapiens, UniProt P0DMS8) (assay: AequoScreen adenosine A3 receptor assay, antagonist mode (luminescence, against reference agonist IB-MECA)). Details: AequoScreen cells expressing A3 human recombinant receptor and Gα16; inhibition of IB-MECA at EC80; duplicate determinations at 8 concentrations.
T1 sequence (P0DMS8 1-318): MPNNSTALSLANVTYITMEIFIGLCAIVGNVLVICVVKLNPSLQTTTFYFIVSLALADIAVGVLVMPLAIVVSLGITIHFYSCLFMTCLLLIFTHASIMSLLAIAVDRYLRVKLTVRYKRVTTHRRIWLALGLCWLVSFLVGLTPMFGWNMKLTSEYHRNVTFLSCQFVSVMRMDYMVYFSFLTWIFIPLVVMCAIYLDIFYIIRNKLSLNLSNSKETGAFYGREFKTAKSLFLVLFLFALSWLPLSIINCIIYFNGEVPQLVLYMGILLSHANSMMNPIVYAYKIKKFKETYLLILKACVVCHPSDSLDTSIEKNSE
Type: cell-based
Protocol: AequoScreen™ (Euroscreen, Belgium) cell lines expressing the A3 human recombinant receptor and the promiscuous G protein Gα16 were used throughout the study. AequoScreen™ cells were cultured following recommended conditions for at least one week prior to the test. The day before the test, cells were harvested with PBS-EDTA, washed and re-suspended in BSA-DMEM12 (Dulbecco's Modified Eagles Medium—Ham's F12 with 0.1% BSA). Suspended cells were then incubated at room temperature with coelenterazine h overnight. For agonist and antagonist testing, 50 μl of the cell suspension were injected onto 50 μl of the test compound or control in 96-well plates, and the resulting emission of light measured for the determination of cell activation. After the first reading, and following an incubation time of 15-30 min, 100 μl of the reference agonist (IB-MECA) at a concentration equal to the EC80 of the day of the experiment were injected onto the cell suspension containing the test compounds. The resulting emission of light was measured for the determination of antagonistic effects. Light emission for agonist and antagonist tests was recorded using a Hamamatsu FDSS-6000 reader. For agonist data, percentages of activation were calculated on the basis of the activation (luminescence data) induced by the reference agonist at a saturating concentration (EC100). For antagonist data, percentages of inhibition were calculated on the basis of the activation (luminescence data) induced by the reference agonist at a concentration equal to the EC80. The test compounds were tested as duplicate determinations at 8 concentrations of 100, 10, 1, 0.1 μM and 10, 1, 0.1, and 0.01 nM for agonist activity and 50, 5, 0.5, 0.05 μM and 5, 0.5, 0.05, and 0.005 nM for antagonist activity. Dose-response data, EC50/IC50, from test compound was analyzed with XLfit (IDBS) software.
This assay may be used to determine the IC50 value for adenosine A3 antagonists according to the invention (see Example 42).

Compound | IC50
CNC(=O)[C@@]12CN[C@@H]([C@H](n3cnc4c(NCc5cccc(I)c5)ncnc43)O1)[C@@H]2O [SPN0235, (1R,3R,4R,7S)-(7-hydroxy-3-(N6-(3-iodobenzyl)-adenin-9-yl)-2-oxa-5-azabicyclo[2:2:1]hept-1-yl)-N-methylcarboxamide] | 12 nM
OC[C@@]12CO[C@@H]([C@H](n3cnc4c(NCc5cccc(I)c5)nc(Cl)nc43)O1)[C@@H]2O [SPN0174, (1S,3R,4R,7S)-7-Hydroxy-1-hydroxymethyl-3-(N6-(3-iodobenzyl)-2-chloro-adenin-9-yl)-2,5-dioxabicyclo[2:2:1]heptane] | 209 nM
CNC(=O)[C@@]12CO[C@@H]([C@H](n3cnc4c(NCc5cccc(I)c5)ncnc43)O1)[C@@H]2N [SPN0195, (1S,3R,4R,7S)-(7-amino-3-(N6-(3-iodobenzyl)-adenin-9-yl)-2,5-dioxabicyclo[2:2:1]hept-1-yl)-N-methylcarboxamide] | 683 nM
CNC(=O)[C@@]12CO[C@@H]([C@H](n3cnc4c(NCc5cccc(I)c5)ncnc43)O1)[C@@H]2N=[N+]=[N-] [SPN0192, (1S,3R,4R,7S)-(7-azido-3-(N6-(3-iodobenzyl)-adenin-9-yl)-2,5-dioxabicyclo[2:2:1]hept-1-yl)-N-methylcarboxamide] | 816 nM
OC[C@@]12CO[C@@H]([C@H](n3cnc4c(NCc5cccc(I)c5)ncnc43)O1)[C@@H]2O [SPN0169, (1S,3R,4R,7S)-7-Hydroxy-1-hydroxymethyl-3-(N6-(3-iodobenzyl)-adenin-9-yl)-2,5-dioxabicyclo[2:2:1]heptane] | 154 nM
CNC(=O)[C@@]12CN[C@@H]([C@H](n3cnc4c(N)ncnc43)O1)[C@@H]2O [SPN0238, (1R,3R,4R,7S)-(7-hydroxy-3-(adenin-9-yl)-2-oxa-5-azabicyclo[2:2:1]hept-1-yl)-N-methylcarboxamide] | 173 nM
CNC(=O)[C@]12CO[C@@H]([C@H](n3cnc4c(NCc5cccc(I)c5)nc(Cl)nc43)O1)[C@@H]2O [SPN0175, (1R,3R,4R,7S)-(7-hydroxy-3-(N6-(3-iodobenzyl)-2-chloro-adenin-9-yl)-2,5-dioxabicyclo[2:2:1]hept-1-yl)-N-methylcarboxamide] | 391 nM

The remaining compounds from weak to strong by IC50, led by results:

IC50 | Compound
638 nM | CNC(=O)[C@@]12CO[C@@H]([C@H](n3cnc4c(NCc5cccc(Br)c5)ncnc43)O1)[C@@H]2O [SPN0186, (1R,3R,4R,7S)-(7-hydroxy-3-(N6-(3-bromobenzyl)-adenin-9-yl)-2,5-dioxabicyclo[2:2:1]hept-1-yl)-N-methylcarboxamide]
94 nM | OCC12CNC(C(n3cnc4c(NCc5cccc(I)c5)ncnc43)O1)C2O (single isomer, unassigned) [SPN0240]
8.2 nM | OCC12CNC(C(n3cnc4c(NCc5cccc(I)c5)ncnc43)O1)C2O (single isomer, unassigned) [SPN0234]

From patent US20100062994A1, “Adenosine Receptor Antagonists” (SANTARIS PHARMA A/S, priority 2006, published 2010)
